One assay addresses Pim3 kinase (Homo sapiens, UniProt Q86V86). Kind of assay: KinaseGlo Pim3 ATP depletion assay. The class given is biochemical. As to conditions: Table 4, 40 μM ATP, 100 μM BAD peptide. The procedure:
(§1) The activity of PIM3 is measured using a luciferase-luciferin based ATP detection reagent to quantify ATP depletion resulting from kinase-catalyzed phosphoryl transfer to a peptide substrate. Compounds to be tested are dissolved in 100% DMSO and directly distributed into white 384-well plates at 0.5 μl per well. […] After 15 minutes, 10 μl of 80 μM ATP in assay buffer is added. Final assay concentrations are 5 nM PIM1, 40 μM ATP, 100 μM BAD peptide and 2.5% DMSO. The reaction is performed until approximately 50% of the ATP is depleted, then stopped by the addition of 20 μl KinaseGlo Plus (Promega Corporation) solution. The stopped reaction is incubated for 10 minutes and the remaining ATP detected via luminescence on the Victor2 (Perkin Elmer).

Another assay deals with Pim1 kinase (Homo sapiens, UniProt P11309). Kind of assay: KinaseGlo Pim1 ATP depletion assay. As to conditions: Table 4, 2.5 nM PIM1, 20 μM ATP, 40 μM BAD peptide. Type of assay: biochemical. The procedure: as §1, with “PIM1” for “PIM3”, “40” for “80”, “Final assay concentrations are 5 nM PIM1, 40 μM ATP, 100 μM BAD peptide and 2.5% DMSO.” left out, “with” for “by”
Chain of Pim1 kinase (P11309 whole entry): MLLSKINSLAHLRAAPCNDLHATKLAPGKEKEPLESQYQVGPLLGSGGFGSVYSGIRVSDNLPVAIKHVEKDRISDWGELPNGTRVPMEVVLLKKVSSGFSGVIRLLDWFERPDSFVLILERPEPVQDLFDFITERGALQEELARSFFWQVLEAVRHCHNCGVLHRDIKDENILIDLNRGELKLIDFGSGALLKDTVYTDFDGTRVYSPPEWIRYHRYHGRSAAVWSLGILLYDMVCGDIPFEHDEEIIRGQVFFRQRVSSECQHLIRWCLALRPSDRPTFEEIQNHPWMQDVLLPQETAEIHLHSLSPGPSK
The target of the next assay is Pim2 kinase (Homo sapiens, UniProt Q9P1W9). Kind of assay: KinaseGlo Pim2 ATP depletion assay. The class given is biochemical. Particulars: Table 4, 5 nM PIM2, 4 μM ATP, 10 μM BAD peptide. (In general: In Kinase-Glo more light means more ATP remaining.)
Chain of Pim2 kinase (Q9P1W9 whole entry): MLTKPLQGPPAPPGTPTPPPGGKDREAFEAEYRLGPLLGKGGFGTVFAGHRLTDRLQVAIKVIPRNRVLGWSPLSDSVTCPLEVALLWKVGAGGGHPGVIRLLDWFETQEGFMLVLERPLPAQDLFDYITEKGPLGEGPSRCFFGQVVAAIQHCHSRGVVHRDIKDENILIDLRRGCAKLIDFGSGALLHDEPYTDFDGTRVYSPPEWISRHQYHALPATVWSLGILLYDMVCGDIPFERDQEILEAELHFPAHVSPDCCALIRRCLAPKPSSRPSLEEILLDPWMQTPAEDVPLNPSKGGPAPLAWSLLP
In assay [1] the test system is KMS11 (human myeloma cell line). Kind of assay: Cell proliferation assay (CellTiter-Glo) in KMS11 cells. The class given is cell-based. As to conditions: KMS-11, 72 h, Table 4, 3 days, read-out: KMS11-luc EC50. A digest of the protocol: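 KMS11 cells at 2000 per well in IMDM/10% FBS were exposed to compound for 3 days. Viability was read by CellTiter-Glo luminescence.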
On the technique in general: Cellular ATP, detected with luciferase, serves as a proxy for viable cell number.

The term pIC50 denotes −log10 of the IC50, conventionally taken in molar units. A word on the pEC50: it is the EC50 on a negative log10 scale, so that one unit is a factor of ten.

pEC50, pIC50: −log10 of the molar value.

Take `C[C@H]1C[C@@H](c2ccncc2NC(=O)c2nc(-c3nc(Cl)ccc3F)ccc2N)C[C@@H](O)[C@]1(C)O` [Example 136, 5-amino-6′-chloro-N-(4-((1R,3R,4R,5S)-3,4-dihydroxy-4,5-dimethylcyclohexyl)pyridin-3-yl)-3′-fluoro-2,2′-bipyridine-6-carboxamide]: the negative-log IC50 (pIC50) at Pim3 kinase was 8.72; at Pim1 kinase, 9.00; against Pim2 kinase, 8.34. Besides, in assay [1], the pEC50 is 5.24.

As for `COC(=O)c1ccc(F)c(-c2ccc(N)c(C(=O)Nc3cnccc3[C@H]3C[C@@H](O)[C@](C)(O)[C@@H](C)C3)n2)n1` [Example 137, methyl 5′-amino-6′-(4-((1R,3R,4R,5S)-3,4-dihydroxy-4,5-dimethylcyclohexyl)pyridin-3-ylcarbamoyl)-3-fluoro-2,2′-bipyridine-6-carboxylate], the pIC50 was 8.64 against Pim3 kinase, 8.82 on Pim1 kinase and 8.27 against Pim2 kinase. In addition, in assay [1], the pEC50 is 5.07.

For `Cc1ccc(F)c(-c2ccc(N)c(C(=O)Nc3cnccc3[C@H]3C[C@@H](O)[C@](C)(O)[C@@H](C)C3)n2)n1` [Example 138, 5-amino-N-(4-((1R,3R,4R,5S)-3,4-dihydroxy-4,5-dimethylcyclohexyl)pyridin-3-yl)-3′-fluoro-6′-methyl-2,2′-bipyridine-6-carboxamide], the pIC50 on Pim3 kinase was 8.59; against Pim1 kinase it was 8.77; on Pim2 kinase, 7.89. Further, the pEC50 in assay [1] was no more than 5.00.

As for `Cc1nn(C)cc1-c1ccc(N)c(C(=O)Nc2cnccc2[C@H]2C[C@@H](O)[C@](C)(O)[C@@H](C)C2)n1` [Example 140, 3-amino-N-(4-((1R,3R,4R,5S)-3,4-dihydroxy-4,5-dimethylcyclohexyl)pyridin-3-yl)-6-(1,3-dimethyl-1H-pyrazol-4-yl)picolinamide], the pIC50 at Pim3 kinase is 7.82; against Pim1 kinase, 8.12; against Pim2 kinase, 6.88. Moreover, the pEC50 in assay [1] was no more than 5.00.

Regarding `C[C@H]1C[C@@H](c2ccncc2NC(=O)c2nc(-c3c(F)cncc3F)ccc2N)C[C@@H](O)[C@]1(C)O` [Example 141, 5-amino-N-(4-((1R,3R,4R,5S)-3,4-dihydroxy-4,5-dimethylcyclohexyl)pyridin-3-yl)-3′,5′-difluoro-2,4′-bipyridine-6-carboxamide], the pIC50 at Pim3 kinase was 8.66; against Pim1 kinase, 8.96; against Pim2 kinase, 8.68. In addition, the pEC50 in assay [1] is 5.31.

For the compound `C[C@H]1C[C@@H](c2ccncc2NC(=O)c2nc(-c3ccnnc3)ccc2N)C[C@@H](O)[C@]1(C)O` [Example 142, 3-amino-N-(4-((1R,3R,4R,5S)-3,4-dihydroxy-4,5-dimethylcyclohexyl)pyridin-3-yl)-6-(pyridazin-4-yl)picolinamide], the negative-log IC50 (pIC50) on Pim3 kinase is 6.61; on Pim1 kinase it was 6.82; against Pim2 kinase, 6.11. Moreover, the pEC50 in assay [1] was no more than 5.00.

For the compound `Cc1c(-c2ccc(N)c(C(=O)Nc3cnccc3[C@H]3C[C@@H](O)[C@](C)(O)[C@@H](C)C3)n2)cnn1C` [Example 143, 3-amino-N-(4-((1R,3R,4R,5S)-3,4-dihydroxy-4,5-dimethylcyclohexyl)pyridin-3-yl)-6-(1,5-dimethyl-1H-pyrazol-4-yl)picolinamide], the pIC50 was 8.06 on Pim3 kinase, 8.06 against Pim1 kinase and 6.92 on Pim2 kinase. Also, the pEC50 in assay [1] was 5.17.

In the case of `C[C@H]1C[C@@H](c2ccncc2NC(=O)c2nc(-c3ncccc3Cl)ccc2N)C[C@@H](O)[C@]1(C)O` [Example 144, 5-amino-3′-chloro-N-(4-((1R,3R,4R,5S)-3,4-dihydroxy-4,5-dimethylcyclohexyl)pyridin-3-yl)-2,2′-bipyridine-6-carboxamide], the pIC50 against Pim3 kinase is 8.64; on Pim1 kinase, 9.15; against Pim2 kinase, 8.11. Also, the pEC50 in assay [1] was 5.37.

(Values after patent US20120225061A1, “TETRASUBSTITUTED CYCLOHEXYL COMPOUNDS AS KINASE INHIBITORS” (priority 2011, published 2012).)
